# According to patent US5578496A, “Detection of autoantibodies associated with the disease myasthenia gravis” (Board of Regents, Baylor College of Medicine, priority 1994, dated 1996):
# *1 amine or outer side, *2 acyl side, *3 side chain or, on linkers, in order; H or OH if unused. Bridges are numbered along the chain shown (N, C = ends). Where no end group is shown, it is not given here. mPEG = monomethoxypolyethylene glycol; Suc = O=C(CCC(=O)[*:2])[*:1]
# How the values were obtained:
# lymph node cells (LNC) = assay: T cell proliferation assay of lymph node cells from AChR-primed mice; format: cell-based, C57/BL6 mice; conditions: LNC challenged with overlapping Torpedo AChR α chain peptides, α125-148 and AChR; compared with mPEG-Nonsense peptide group
# Method: Six weeks old C57/BL6 mice were purchased from Charles River Breeding Laboratories (Wilmington, Mass.). Preimmune sera were obtained from the mice for use as controls in subsequent antibody binding assays. After 2-weeks rest, the mice were divided into three groups which received, at eleven, seven and three days before immunization with AChR, an intraperitoneal injection (5 μg in 25 μl of PBS [0.15M NaCl in 0.01M sodium phosphate buffer, pH 7.2]) of either the mPEG-(α125-148) conjugate (Group 1), mPEG-nonsense peptide conjugate (Group 2) or unaltered free peptide α125-148 (Group 3) (FIG. 5). Then, on day 0, the mice were immunized subcutaneously in one hind footpad and intramuscularly in the same side shoulder with 20 μg of Torpedo AChR in 100 μl emulsion containing equal volumes of complete Freund's adjuvant and PBS. […]
# Lymph node cells (LNC) were harvested from the AChR-primed mice of each group ten or eleven days after the last AChR immunization. […] The number of viable cells was determined by vital staining with fluorescein diacetage. […] After incubation for 3 days at 37° C. in a humidified air/CO2 (19:1) atmosphere, the cultures were pulsed (18 hr) with 1 μCi/well [^3 H]-thymidine (Research Products International, Mount Prospect, Ill.) and then harvested on to glass microfiber filters (Whatman, Clinton, N.J.) for counting of radioactivity by liquid scintillation.
# peptide α125-148 = assay: Radioimmunoassay of anti-AChR antisera from pretreated mice: antibody binding to peptide α125-148; format: in vivo, C57/BL6 mice
# Method: (§1) Six weeks old C57/BL6 mice were purchased from Charles River Breeding Laboratories (Wilmington, Mass.). Preimmune sera were obtained from the mice for use as controls in subsequent antibody binding assays. After 2-weeks rest, the mice were divided into three groups which received, at eleven, seven and three days before immunization with AChR, an intraperitoneal injection (5 μg in 25 μl of PBS [0.15M NaCl in 0.01M sodium phosphate buffer, pH 7.2]) of either the mPEG-(α125-148) conjugate (Group 1), mPEG-nonsense peptide conjugate (Group 2) or unaltered free peptide α125-148 (Group 3) (FIG. 5). Then, on day 0, the mice were immunized subcutaneously in one hind footpad and intramuscularly in the same side shoulder with 20 μg of Torpedo AChR in 100 μl emulsion containing equal volumes of complete Freund's adjuvant and PBS. Thirty days later, the mice were immunized with a similar dose of the receptor in the opposite footpad and shoulder. On the 37th day, test bleeds were obtained from the mice for determination of the antibody titers. Electrophysiological studies were performed on the 38th and 39th days. Finally, the mice were sacrificed on the 40th day and lymph node cells were obtained for T cell studies.
# One mg of the synthetic peptide was dissolved in 50 μl dimethylformamide and then diluted with PBS to 25 μg/ml. A solution of Torpedo AChR in PBS was prepared to contain 2.5 μg/ml. Aliquots (50 μl/well) of the peptide or AChR solutions were added to a 96-well microtiter plate (Falcon Micro Test III flexible assay plate, Becton Dickinson, Oxcard, Calif.) and the plates were incubated at room temperature overnight. After washing 3 times with PBS, the plates were blocked with 0.25% bovine serum albumin (BSA [bovine serum albumin]) in PBS (50 μl/well) at 37° C. for 90 minutes. The plates were washed again 5 times with PBS and to each well was added 50 μl of the serum from AChR-immunized mice, pre-diluted with PBS containing 0.10% BSA, and the plates were covered and allowed to stand at room temperature overnight. After 5 washes with PBS, 50 μl of rabbit IgG antibodies (2.5 μg/ml) against mouse IgG and IgM (Accurate Chemical Scientific Corporation, Westbury, N.Y.) was added to each well and the plates were incubated at 37° C. for 3 hours. The plates were then washed 5 times with PBS and ^125 I-labeled protein A (2×10^5cpm in 50 μl of PBS-0.1% BSA) was added to each well. The plates were incubated for 3 hours at room temperature, after which they were washed and the wells were cut out and counted for bound radioactivity. Pre-immune serum samples, obtained from the mice prior to any experimental treatments, were used as controls to correct for non-specific binding.
# [1] = tested on: experimental autoimmune myasthenia gravis (EAMG); assay: Electromyography (repetitive nerve stimulation) for electrophysiological EAMG after immunization with Torpedo AChR; format: in vivo, C57/BL6 mice
# Method: Six weeks old C57/BL6 mice were purchased from Charles River Breeding Laboratories (Wilmington, Mass.). Preimmune sera were obtained from the mice for use as controls in subsequent antibody binding assays. […] Then, on day 0, the mice were immunized subcutaneously in one hind footpad and intramuscularly in the same side shoulder with 20 μg of Torpedo AChR in 100 μl emulsion containing equal volumes of complete Freund's adjuvant and PBS. Thirty days later, the mice were immunized with a similar dose of the receptor in the opposite footpad and shoulder. On the 37th day, test bleeds were obtained from the mice for determination of the antibody titers. Electrophysiological studies were performed on the 38th and 39th days. Finally, the mice were sacrificed on the 40th day and lymph node cells were obtained for T cell studies. To document the electrophysiological evidence of EAMG, amplitudes of serial muscle action potentials were measured by electromyography (EMG) during the repetitive stimulation of the nerve in immunized mice, using the Mystro EMG system (TECA Corporation). A pair of wire electrodes were surgically implanted, encircling the sciatic nerve, two days before EMG. The nerve was stimulated through the implanted electrodes by 3 Hz trains of supramaximal electric current with a duration of 200 microseconds. The corresponding muscle action potentials were recorded with an electrode subcutaneously inserted over the gastrocnemius muscle. A reference electrode was placed at the ankle. Ether inhalation was used during the surgical and recording procedures. […] Students' t-test was used to analyze the differences of amplitude changes between the two groups. A typical myasthenic response of a greater than 10% decrement was considered to constitute an electrophysiological evidence of EAMG. The frequency of electrophysiological EAMG was calculated in each group and analyzed by chi-square test.
# peptide α45-60 = assay: Radioimmunoassay of anti-AChR antisera from pretreated mice: antibody binding to peptide α45-60; format: in vivo, C57/BL6 mice; conditions: Group 1 compared to control groups; P>0.1-0.5
# Method: as §1, with “Finally, the mice were sacrificed on the 40th day and lymph node cells were obtained for T cell studies.” left out
# (§2) One mg of the synthetic peptide was dissolved in 50 μl dimethylformamide and then diluted with PBS to 25 μg/ml. […] The plates were incubated for 3 hours at room temperature, after which they were washed and the wells were cut out and counted for bound radioactivity. […]
# peptide α182-198 = assay: Radioimmunoassay of anti-AChR antisera from pretreated mice: antibody binding to peptide α182-198; format: in vivo, C57/BL6 mice; conditions: Group 1 compared to control groups; P>0.1-0.5
# Method: as §1, with “Finally, the mice were sacrificed on the 40th day and lymph node cells were obtained for T cell studies.” left out
# as §2
# whole Torpedo AChR = assay: Radioimmunoassay of anti-AChR antisera from pretreated mice: antibody binding to whole AChR; format: in vivo, C57/BL6 mice; conditions: Group 1 compared to control groups; P>0.5
# Method: as §1, with “Finally, the mice were sacrificed on the 40th day and lymph node cells were obtained for T cell studies.” left out
# as §2
# [2] = 5 μg i.p. at 11, 7 and 3 days before immunization with Torpedo AChR, EMG on days 38-39
substance,measurement,setting,value
"mPEG-(α125-148): monomethoxypolyethylene glycol coupled via succinyl to the N-terminal α-NH2 of Torpedo AChR peptide α125-148 (Group 1) ({mPEG-Suc}-KSYCEIIVTHFPFDQQNCTMKLGI; disulfide 4-18 (inferred); UniProt P02710 149-172, looked up, fragment)",T cell proliferation profiles,lymph node cells (LNC),did not show meaningful differences
same,"antibody binding to peptide α125-148, mean net cpm ± standard deviation","peptide α125-148; anti-AChR antisera of individual mice, day 37 bleeds",1414±1801 cpm
same,"antibody binding to peptide α125-148, pooled antisera in serial dilutions","peptide α125-148; pooled serum of each group, various dilutions",consistently lower amounts of antibody binding
same,antibodies bound to peptide α125-148 in anti-AChR antisera,peptide α125-148; pretreatment prior to immunization with Torpedo AChR,significantly decreased
same,mean amplitude change of muscle action potentials,[1]; [2],-5.4%
same,mice showing a decremental response greater than 10%,[1]; [2],20%
same,effect on development of electrophysiological EAMG,"[1]; prior administration, then immunization with AChR",suppresses development of electrophysiological EAMG but the suppression was incomplete
same,antibodies against peptide α45-60,peptide α45-60,no significant suppression
same,antibodies against peptide α182-198,peptide α182-198,no significant suppression
same,antibodies against whole receptor,whole Torpedo AChR,no significant suppression
